Measurements reported in the NIST ThermoML archive (doi:10.1021/je5010214).
± gives the expanded uncertainty stated by the source.

Conditions: Liquid, Vibrating tube method

CCCCCCC [heptane]
Conditions	mass density [kg/m3]
283.15 K, 101 kPa	692.398 ± 0.81
283.15 K, 267.6 kPa	692.646 ± 0.81
283.15 K, 550.8 kPa	692.799 ± 0.81
283.15 K, 878.6 kPa	693.177 ± 0.81
283.15 K, 991.3 kPa	693.192 ± 0.81
283.15 K, 2020.2 kPa	694.161 ± 0.82
283.15 K, 2914.8 kPa	694.997 ± 0.82
283.15 K, 4946.5 kPa	696.597 ± 0.82
283.15 K, 7034.8 kPa	698.638 ± 0.83
283.15 K, 9021.6 kPa	700.052 ± 0.83
283.15 K, 9991.9 kPa	700.869 ± 0.84
283.15 K, 11959 kPa	702.48 ± 0.84
283.15 K, 15011 kPa	704.783 ± 0.85
283.15 K, 18047 kPa	706.965 ± 0.86
283.15 K, 20045 kPa	708.637 ± 0.87
283.15 K, 22056 kPa	709.841 ± 0.88
283.15 K, 25044 kPa	712 ± 0.89
283.15 K, 28046 kPa	714.05 ± 0.9
283.15 K, 30052 kPa	715.435 ± 0.91
283.15 K, 32055 kPa	716.688 ± 0.92
283.15 K, 32971 kPa	717.342 ± 0.92
283.15 K, 33000 kPa	717.432 ± 0.92
283.15 K, 34016 kPa	718.012 ± 0.93
283.15 K, 34960 kPa	718.734 ± 0.93
283.15 K, 37943 kPa	720.455 ± 0.94
283.15 K, 40004 kPa	721.755 ± 0.95
283.15 K, 42058 kPa	723.102 ± 0.96
283.15 K, 44940 kPa	724.839 ± 0.98
283.15 K, 48022 kPa	726.526 ± 0.99
283.15 K, 49996 kPa	727.851 ± 1
283.15 K, 51982 kPa	728.904 ± 1
283.15 K, 54965 kPa	730.736 ± 1
283.15 K, 57949 kPa	732.407 ± 1
283.15 K, 59996 kPa	733.467 ± 1.1
283.15 K, 62025 kPa	734.345 ± 1.1
283.15 K, 64998 kPa	735.98 ± 1.1
283.16 K, 65971 kPa	736.499 ± 1.1
288.15 K, 102 kPa	688.224 ± 0.81
288.15 K, 391.3 kPa	688.682 ± 0.81
288.15 K, 554.4 kPa	688.232 ± 0.81
288.15 K, 882.7 kPa	689.214 ± 0.81
288.15 K, 989.1 kPa	688.618 ± 0.81
288.15 K, 2057.5 kPa	689.559 ± 0.82
288.15 K, 2917.8 kPa	690.931 ± 0.82
288.15 K, 5041.4 kPa	692.738 ± 0.82
288.15 K, 7088.8 kPa	693.96 ± 0.83
288.15 K, 9018.6 kPa	695.614 ± 0.83
288.15 K, 10040 kPa	696.278 ± 0.84
288.15 K, 12072 kPa	698.584 ± 0.84
288.15 K, 15001 kPa	700.836 ± 0.85
288.15 K, 17968 kPa	703.23 ± 0.86
288.15 K, 20068 kPa	704.758 ± 0.87
288.15 K, 22020 kPa	705.649 ± 0.88
288.15 K, 25002 kPa	707.645 ± 0.89
288.15 K, 28026 kPa	709.735 ± 0.9
288.15 K, 30035 kPa	711.006 ± 0.91
288.15 K, 32084 kPa	712.959 ± 0.92
288.15 K, 33050 kPa	713.818 ± 0.93
288.15 K, 33096 kPa	713.93 ± 0.93
288.15 K, 34036 kPa	714.067 ± 0.93
288.15 K, 35077 kPa	714.575 ± 0.94
288.15 K, 37993 kPa	716.378 ± 0.95
288.15 K, 40041 kPa	717.608 ± 0.96
288.15 K, 42023 kPa	718.735 ± 0.97
288.15 K, 44979 kPa	720.398 ± 0.98
288.15 K, 48045 kPa	723.18 ± 1
288.15 K, 50068 kPa	724.245 ± 1
288.15 K, 52032 kPa	724.841 ± 1
288.15 K, 55077 kPa	726.211 ± 1
288.15 K, 58004 kPa	729.214 ± 1.1
288.15 K, 59988 kPa	729.723 ± 1.1
288.15 K, 61974 kPa	731.101 ± 1.1
288.15 K, 64942 kPa	731.745 ± 1.1
288.15 K, 66025 kPa	732.751 ± 1.1
293.15 K, 100.5 kPa	683.714 ± 0.81
293.15 K, 825.1 kPa	684.796 ± 0.81
293.15 K, 1971.7 kPa	685.978 ± 0.82
293.15 K, 3060.6 kPa	686.787 ± 0.82
